Laboratory results: patent US11220521B2, “Optically-active 2-amino-phosphonoalkane acid, optically-active 2-amino-phosphonoalkane acid salt, and hydrates of these” (priority 2017, dated 2022)

Key:
[1] = room temperature; amorphous powdery solid obtained through lyophilization; cited from earlier work
[2] = biological target: gamma-glutamyl transpeptidase (GGT) (Homo sapiens, UniProt P19440); settings: known from Patent Literature (PTL) 1; cited from earlier work
[3] = tested on: normal human epidermal cells; assay: Evaluation for glutathione production promoting activity (total glutathione amount, glutathione reductase recycling assay); assay type: cell-based; settings: for GSH (pmol/μg-protein) Mean ± S.D.: 24-hour cultivation, n=4; for glutathione production promoting activities compared with Nahlsgen: summary of Tables 5-1 and 5-2
Method: D-2-Amino-8-phosphonooctanoic acid monohydrate obtained in Example 8, which was used as a sample, was evaluated for glutathione production promoting activity by the following method (n=4).
Specifically, normal human epidermal cells were seeded in a 96-well microplate at a density of 2.0×10^4 cells per 96 wells, using a normal human epidermal keratinocyte growth medium HuMedia KG2 (trade name, supplied by Kurabo Industries Ltd.).
After 24 hours from the seeding, the medium was exchanged with a normal human epidermal keratinocyte growth medium HuMedia KB2 (trade name, supplied by Kurabo Industries Ltd.) containing the sample in a predetermined concentration, and the cultivation was continued. As a blank, the cells were cultured by a procedure similar to above, except for not using the sample.
After 24-hour cultivation, the cells were disrupted by ultrasonication using a phosphate buffer containing 100 μM phenylmethylsulfonyl fluoride, and the total glutathione amount was determined by glutathione reductase recycling assay.
Specifically, a suspension of the disrupted cells were mixed with reduced nicotinamide adenine dinucleotide phosphate and glutathione reductase, followed by reaction at 37° C. for 10 minutes.
Next, 0.1 M phosphate buffer (containing 0.5 M EDTA, pH 7.5) containing dissolved 10 mM 5,5′-dithiobis(2-nitrobenzoic acid) was added, and the mixture was incubated for 30 minutes. The absorbance at 450 nm was measured immediately after addition, and after incubation for 30 minutes. The difference in absorbance, which is calculated by subtracting the absorbance immediately after addition from the absorbance after 30-minute incubation, was defined as an index for glutathione synthesis quantity.
The total glutathione amount in the disrupted cell suspension was determined on the basis of a calibration curve plotted using oxidized glutathione. The protein content in the disrupted cell suspension was determined using the Pierce Microplate BCA Protein Assay Kit (Thermo SCIENTIFIC). The glutathione synthesis quantity was evaluated for differences from the untreated specimen (blank) and from the positive object by a significant difference test using Student's t-test. The results of the tests, each of which was performed two times, are given in Tables 4-1 (first test) and 4-2 (second test).
Tests were performed (n=4) to determine glutathione production promoting activity by a procedure similar to above, except for using, as a sample instead of D-2-amino-8-phosphonooctanoic acid monohydrate, D-2-amino-4-phosphonobutanoic acid L-Arg salt obtained in Example 2, or D-2-amino-4-phosphonobutanoic acid D-Arg salt monohydrate obtained in Example 3.
A test as a referential example was also performed by a procedure similar to above, except for using Nahlsgen (generic name: DL-2-amino-4-[(RSp)-(3-carboxymethylphenoxy) (methoxy)phosphoryl]butanoic acid), instead of the sample.

[4] = Table 5-1, first test, 10.00 μmol/L
[5] = Table 5-2, second test, 10.00 μmol/L
[6] = Table 5-2, second test, 50.00 μmol/L
[7] = Table 5-1, first test, 2.00 μmol/L
[8] = Table 5-1, first test, 50.00 μmol/L
[9] = Table 5-1, first test, 250.00 μmol/L
[10] = Table 5-2, second test, 2.00 μmol/L
[11] = Table 5-2, second test, 250.00 μmol/L

Chain of gamma-glutamyl transpeptidase (GGT) (P19440 whole entry, species assumed): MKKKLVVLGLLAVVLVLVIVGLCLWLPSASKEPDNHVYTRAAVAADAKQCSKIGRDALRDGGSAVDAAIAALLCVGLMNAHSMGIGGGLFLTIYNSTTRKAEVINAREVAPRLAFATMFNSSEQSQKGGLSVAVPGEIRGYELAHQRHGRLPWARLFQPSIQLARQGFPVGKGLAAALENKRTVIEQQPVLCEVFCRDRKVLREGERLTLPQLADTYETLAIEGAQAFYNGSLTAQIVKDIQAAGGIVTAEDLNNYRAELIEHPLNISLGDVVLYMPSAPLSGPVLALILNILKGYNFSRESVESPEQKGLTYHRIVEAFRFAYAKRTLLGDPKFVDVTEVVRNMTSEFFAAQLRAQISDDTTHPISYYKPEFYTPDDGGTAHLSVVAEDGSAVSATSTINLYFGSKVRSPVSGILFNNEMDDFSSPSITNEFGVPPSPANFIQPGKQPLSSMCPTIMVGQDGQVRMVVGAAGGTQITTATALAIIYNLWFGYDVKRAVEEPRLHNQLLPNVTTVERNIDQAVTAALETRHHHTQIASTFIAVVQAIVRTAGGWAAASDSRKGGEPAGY

N[C@@H](CCCCCCP(=O)(O)O)C(=O)O.O (hydrate or solvate)
melting point: 73 °C

N[C@H](CCCCCCP(=O)(O)O)C(=O)O.O (hydrate or solvate) [D-2-amino-8-phosphonooctanoic acid monohydrate]
melting point: 75.3 °C

COP(=O)(CCC(N)C(=O)O)Oc1cccc(CC(=O)O)c1 (racemic) [Nahlsgen, DL-2-amino-4-[(RSp)-(3-carboxymethylphenoxy)(methoxy)phosphoryl]butanoic acid, reference compound]
deliquescency / decomposition on storage [1]: deliquescent and is liable to decompose at room temperature
GGT inhibitor activity [2]: excellent gamma-glutamyl transpeptidase (GGT) inhibitor
GSH (pmol/μg-protein) Mean ± S.D. [3, 4]: 44.7 ± 2.7 pmol/μg-protein
GSH (pmol/μg-protein) Mean ± S.D. [3, 5]: 36.2 ± 3.4 pmol/μg-protein
GSH (pmol/μg-protein) Mean ± S.D. [3, 6]: 36.5 ± 3.9 pmol/μg-protein

N=C(N)NCCC[C@@H](N)C(=O)O.N[C@H](CCP(=O)(O)O)C(=O)O.O [D-2-amino-4-phosphonobutanoic acid D-Arg salt monohydrate]
GSH (pmol/μg-protein) Mean ± S.D. [3, 7]: 38.6 ± 3.1 pmol/μg-protein
GSH (pmol/μg-protein) Mean ± S.D. [3, 4]: 46.2 ± 1.8 pmol/μg-protein
GSH (pmol/μg-protein) Mean ± S.D. [3, 8]: 36.3 ± 4.0 pmol/μg-protein
GSH (pmol/μg-protein) Mean ± S.D. [3, 9]: 40.9 ± 8.1 pmol/μg-protein
GSH (pmol/μg-protein) Mean ± S.D. [3, 10]: 35.8 ± 1.1 pmol/μg-protein
GSH (pmol/μg-protein) Mean ± S.D. [3, 5]: 35.8 ± 1.2 pmol/μg-protein
GSH (pmol/μg-protein) Mean ± S.D. [3, 6]: 37.3 ± 1.9 pmol/μg-protein
GSH (pmol/μg-protein) Mean ± S.D. [3, 11]: 37.1 ± 1.7 pmol/μg-protein
glutathione production promoting activities compared with Nahlsgen [3]: significant glutathione production promoting activities comparable to or higher than those of Nahlsgen

N=C(N)NCCC[C@H](N)C(=O)O.N[C@H](CCP(=O)(O)O)C(=O)O [D-2-amino-4-phosphonobutanoic acid L-Arg salt]
GSH (pmol/μg-protein) Mean ± S.D. [3, 7]: 49.2 ± 7.5 pmol/μg-protein
GSH (pmol/μg-protein) Mean ± S.D. [3, 4]: 51.0 ± 1.6 pmol/μg-protein
GSH (pmol/μg-protein) Mean ± S.D. [3, 8]: 43.9 ± 9.3 pmol/μg-protein
GSH (pmol/μg-protein) Mean ± S.D. [3, 9]: 42.9 ± 9.8 pmol/μg-protein
GSH (pmol/μg-protein) Mean ± S.D. [3, 10]: 37.6 ± 2.2 pmol/μg-protein
GSH (pmol/μg-protein) Mean ± S.D. [3, 5]: 35.4 ± 2.1 pmol/μg-protein
GSH (pmol/μg-protein) Mean ± S.D. [3, 6]: 37.2 ± 3.0 pmol/μg-protein
GSH (pmol/μg-protein) Mean ± S.D. [3, 11]: 36.3 ± 1.5 pmol/μg-protein
glutathione production promoting activities compared with Nahlsgen [3]: significant glutathione production promoting activities comparable to or higher than those of Nahlsgen

N[C@H](CCCCCCP(=O)(O)O)C(=O)O.O [D-2-amino-8-phosphonooctanoic acid monohydrate]
GSH (pmol/μg-protein) Mean ± S.D. ([3]; Table 4-1, first test, 2.00 μmol/L): 59.5 ± 2.0 pmol/μg-protein
GSH (pmol/μg-protein) Mean ± S.D. ([3]; Table 4-1, first test, 10.00 μmol/L): 60.6 ± 2.3 pmol/μg-protein
GSH (pmol/μg-protein) Mean ± S.D. ([3]; Table 4-1, first test, 50.00 μmol/L): 59.7 ± 8.5 pmol/μg-protein
GSH (pmol/μg-protein) Mean ± S.D. ([3]; Table 4-1, first test, 250.00 μmol/L): 61.0 ± 3.0 pmol/μg-protein
GSH (pmol/μg-protein) Mean ± S.D. ([3]; Table 4-2, second test, 2.00 μmol/L): 35.3 ± 1.7 pmol/μg-protein
GSH (pmol/μg-protein) Mean ± S.D. ([3]; Table 4-2, second test, 10.00 μmol/L): 34.8 ± 1.9 pmol/μg-protein
GSH (pmol/μg-protein) Mean ± S.D. ([3]; Table 4-2, second test, 50.00 μmol/L): 34.8 ± 2.6 pmol/μg-protein
GSH (pmol/μg-protein) Mean ± S.D. ([3]; Table 4-2, second test, 250.00 μmol/L): 33.6 ± 2.3 pmol/μg-protein
glutathione production promoting activity as compared with the blank ([3]; summary of Tables 4-1 and 4-2, versus untreated specimen): significant glutathione production promoting activity
